Laboratory results: US6376510B1, “Neuromuscular relaxants” (Newlaxant LLC, priority 1997, dated 2002)
Where two headings read alike, the source gives them in different places.

Experiments:
[1] = test system: anesthetized rats (evoked responses of anterior tibial muscle); assay: In vivo neuromuscular block and cardiovascular side effects, anesthetized rat (Example 8, Table 3); conditions: for RI (recovery index): spontaneous recovery, 25-75% neuromuscular response; for Onset: time to 80-85% neuromuscular block
Outline: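 Pentobarbital-anesthetized (i.p.), ventilated adult male rats given saline-dissolved agents i.v.; anterior tibial EMG responses to supramaximal single or train-of-four sciatic/peroneal stimuli, plus 0.1 or 1 Hz stimulation. Doses for 50%, 80%, 90% block derived. Onset: minutes to 80-85% block; RI: 25-75% spontaneous recovery; vagal block, heart rate and blood pressure changes (%) at 80-85% blocking dose.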

anesthetized monkeys = assay: In vivo neuromuscular block and cardiovascular side effects, monkey (Example 8, Table 6); conditions: for ED50: intravenous dose causing 50% neuromuscular block; for RI (recovery index): spontaneous recovery, 25-75% neuromuscular response; for Onset: time to 80-85% neuromuscular block
Outline: (§1)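 Electromyographic and mechanomyographic responses quantified. Monkeys sedated with intramuscular ketamine, then general anesthesia with intravenous pentobarbital and propofol; juvenile pigs induced with inhaled halothane.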

dogs = assay: animal or person; format: in vivo; conditions: dog; for ED50: intravenous dose causing 50% neuromuscular block; for RI (recovery index): spontaneous recovery, 25-75% neuromuscular response; for Onset: time to 80-85% neuromuscular block
rabbits = assay: In vivo neuromuscular block and cardiovascular side effects, rabbit (Example 8, Table 7); conditions: for ED50: intravenous dose causing 50% neuromuscular block; for RI (recovery index): spontaneous recovery, 25-75% neuromuscular response; for Onset: time to 80-85% neuromuscular block
[2] = test system: anesthetized cats (evoked responses of anterior tibial muscle); assay: animal or person; conditions: for RI (recovery index): spontaneous recovery, 25-75% neuromuscular response; for Onset: time to 80-85% neuromuscular block
Outline: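 Adult cats anesthetized i.p. with 70 mg/kg alpha chloralose plus 0.5 g/kg ethylurethane; agents in saline given i.v. Anterior tibial muscle responses to supramaximal single or train-of-four stimuli of sciatic or peroneal nerve recorded electromyographically and mechanomyographically, alongside blood pressure and heart rate.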

[3] = test system: anesthetized juvenile pigs; assay: animal or person; format: in vivo; conditions: pig; for ED50: intravenous dose causing 50% neuromuscular block; for RI (recovery index): spontaneous recovery, 25-75% neuromuscular response; for Onset: time to 80-85% neuromuscular block
Outline: as §1

[4] = rat, intravenous dose causing 50% neuromuscular block
[5] = cat, intravenous dose causing 50% neuromuscular block
[6] = rat, at 80-85% neuromuscular blocking dose
[7] = at 80-85% neuromuscular blocking dose
[8] = Canis lupus familiaris, read-out: ED50
[9] = Oryctolagus cuniculus, read-out: ED50
[10] = cat, at 80-85% neuromuscular blocking dose

CC(=O)Oc1ccc(C[N+]2(C)C3CCCC2CC(OC(=O)C2CCC2C(=O)OC2CC4CCCC(C2)[N+]4(C)Cc2ccc(OC(C)=O)c(OC(C)=O)c2)C3)cc1OC(C)=O.[Br-].[Br-] (centres unmarked) [bis[N-(3,4-diacetoxybenzyl)granataninium-3-yl]cyclobutane-1,2-dicarboxylate dibromide]
VB (vagal block) ([1]; rat, in vivo): 2%
ΔBP (change in arterial blood pressure) ([1]; rat, in vivo): 0%
ΔH (change in heart rate) ([1]; rat, in vivo): 0%
ED50 [1, 4]: 0.133 mg/kg
RI (recovery index) ([1]; rat): 0.4 min
Onset ([1]; rat): 0.5 min
ΔBP (change in arterial blood pressure) (anesthetized monkeys; in vivo): 0%
ΔH (change in heart rate) (anesthetized monkeys; in vivo): 0%
ED50 (anesthetized monkeys): 0.086 mg/kg
RI (recovery index) (anesthetized monkeys): 0.4 min
Onset (anesthetized monkeys): 0.7 min
ΔBP (change in arterial blood pressure) (dogs; in vivo): −5%
ΔH (change in heart rate) (dogs; in vivo): 27%
ED50 (dogs): 0.15 mg/kg
RI (recovery index) (dogs): 0.7 min
Onset (dogs): 0.75 min
ΔBP (change in arterial blood pressure) (rabbits; in vivo): 0%
ΔH (change in heart rate) (rabbits; in vivo): 0%
ED50 (rabbits): 0.115 mg/kg
RI (recovery index) (rabbits): 0.6 min
Onset (rabbits): 0.6 min
ED50 [2, 5]: 0.4 mg/kg
RI (recovery index) ([2]; cat): 0.5 min
Onset ([2]; cat): 0.6 min
ΔBP (change in arterial blood pressure) ([2]; in vivo): 0%
ΔH (change in heart rate) ([2]; in vivo): 0%
VB (vagal block) ([3]; in vivo): 15%
ΔBP (change in arterial blood pressure) ([3]; in vivo): 0%
ΔH (change in heart rate) ([3]; in vivo): 0%
ED50 [3]: 0.1 mg/kg
RI (recovery index) [3]: 1 min
Onset [3]: 0.8 min

CC(=O)Oc1ccc(C[N+]2(C)C3CCCC2CC(OC(=O)CCCCCCC(=O)OC2CC4CCCC(C2)[N+]4(C)Cc2ccc(OC(C)=O)c(OC(C)=O)c2)C3)cc1OC(C)=O.[Br-].[Br-] (centres unmarked) [bis[N-(3,4-diacetoxybenzyl)granataninium-3-yl]suberate dibromide]
VB (vagal block) ([1]; rat, in vivo): 60%
ΔBP (change in arterial blood pressure) ([1]; rat, in vivo): 0%
ΔH (change in heart rate) ([1]; rat, in vivo): 0%
ED50 [1, 4]: 0.45 mg/kg
RI (recovery index) ([1]; rat): 0.35 min
Onset ([1]; rat): 0.4 min
ΔBP (change in arterial blood pressure) (anesthetized monkeys; in vivo): 0%
ΔH (change in heart rate) (anesthetized monkeys; in vivo): 0%
ED50 (anesthetized monkeys): 0.2 mg/kg
RI (recovery index) (anesthetized monkeys): 0.4 min
Onset (anesthetized monkeys): 0.9 min
ΔBP (change in arterial blood pressure) (dogs; in vivo): −55%
ΔH (change in heart rate) (dogs; in vivo): 60%
ED50 (dogs): 0.25 mg/kg
RI (recovery index) (dogs): 0.45 min
Onset (dogs): 0.8 min
ΔBP (change in arterial blood pressure) (rabbits; in vivo): 0%
ΔH (change in heart rate) (rabbits; in vivo): 0%
ED50 (rabbits): 0.475 mg/kg
RI (recovery index) (rabbits): 0.55 min
Onset (rabbits): 0.5 min
ED50 [2, 5]: 0.7 mg/kg
RI (recovery index) ([2]; cat): 0.5 min
Onset ([2]; cat): 0.6 min
VB (vagal block) ([2]; in vivo): 80%
ΔBP (change in arterial blood pressure) ([2]; in vivo): −20%
ΔH (change in heart rate) ([2]; in vivo): 0%
VB (vagal block) ([3]; in vivo): 80%
ΔBP (change in arterial blood pressure) ([3]; in vivo): 0%
ΔH (change in heart rate) ([3]; in vivo): 0%
ED50 [3]: 0.25 mg/kg
RI (recovery index) [3]: 0.8 min
Onset [3]: 0.6 min

CC(=O)Oc1ccc(C[N+]2(C)[C@@H]3CC[C@H]2C[C@@H](OC(=O)CCCC(=O)O[C@H]2C[C@H]4CC[C@@H](C2)[N+]4(C)Cc2ccc(OC(C)=O)c(OC(C)=O)c2)C3)cc1OC(C)=O.[Br-].[Br-] (stereo partly drawn) [bis[N-(3,4-diacetoxybenzyl)tropanium-3α-yl]glutarate dibromide]
ED50 ([1]; Rattus norvegicus, iv): 0.232 mg/kg
VB (vagal block) [1, 6]: 10%
ΔBP (change in arterial blood pressure) [1, 6]: 0%
ΔH (change in heart rate) [1, 6]: 0%
RI (recovery index) ([1]; rat): 0.6 min
Onset ([1]; rat): 0.75 min
ED50 (anesthetized monkeys; Primates, read-out: ED50): 0.088 mg/kg
ΔBP (change in arterial blood pressure) (anesthetized monkeys; [7]): 0%
ΔH (change in heart rate) (anesthetized monkeys; [7]): 0%
RI (recovery index) (anesthetized monkeys): 0.8 min
Onset (anesthetized monkeys): 1 min
ED50 (dogs; [8]): 0.11 mg/kg
ΔBP (change in arterial blood pressure) (dogs; [7]): 0%
ΔH (change in heart rate) (dogs; [7]): 0%
RI (recovery index) (dogs): 0.6 min
Onset (dogs): 0.9 min
ED50 (rabbits; [9]): 0.065 mg/kg
ΔBP (change in arterial blood pressure) (rabbits; [7]): 0%
ΔH (change in heart rate) (rabbits; [7]): 0%
RI (recovery index) (rabbits): 0.7 min
Onset (rabbits): 0.9 min
ED50 ([2]; Felis catus, iv): 0.183 mg/kg
VB (vagal block) [2, 10]: 8%
ΔBP (change in arterial blood pressure) [2, 10]: 0%
ΔH (change in heart rate) [2, 10]: 0%
RI (recovery index) ([2]; cat): 0.6 min
Onset ([2]; cat): 1 min
ED50 ([3]; Sus scrofa, read-out: ED50): 0.23 mg/kg
VB (vagal block) [3, 7]: 41%
ΔBP (change in arterial blood pressure) [3, 7]: 0%
ΔH (change in heart rate) [3, 7]: 0%
RI (recovery index) [3]: 1.1 min
Onset [3]: 0.95 min

COc1cc(C[N+]2(C)[C@@H]3CC[C@H]2C[C@@H](OC(=O)C2CCC2C(=O)O[C@H]2C[C@H]4CC[C@@H](C2)[N+]4(C)Cc2ccc(OC(C)=O)c(OC)c2)C3)ccc1OC(C)=O.[Br-].[Br-] (stereo partly drawn) [bis[N-(4-acetoxy-3-methoxybenzyl)tropanium-3α-yl]cyclobutane-1,2-dicarboxylate dibromide]
ED50 ([1]; Rattus norvegicus, iv): 0.35 mg/kg
VB (vagal block) [1, 6]: 20%
ΔBP (change in arterial blood pressure) [1, 6]: 0%
ΔH (change in heart rate) [1, 6]: 0%
RI (recovery index) ([1]; rat): 0.5 min
Onset ([1]; rat): 0.6 min
ED50 (anesthetized monkeys; Primates, read-out: ED50): 0.092 mg/kg
ΔBP (change in arterial blood pressure) (anesthetized monkeys; [7]): 0%
ΔH (change in heart rate) (anesthetized monkeys; [7]): 0%
RI (recovery index) (anesthetized monkeys): 0.5 min
Onset (anesthetized monkeys): 0.75 min
ED50 (dogs; [8]): 0.145 mg/kg
ΔBP (change in arterial blood pressure) (dogs; [7]): −15%
ΔH (change in heart rate) (dogs; [7]): 45%
RI (recovery index) (dogs): 0.7 min
Onset (dogs): 0.85 min
ED50 (rabbits; [9]): 0.075 mg/kg
ΔBP (change in arterial blood pressure) (rabbits; [7]): 0%
ΔH (change in heart rate) (rabbits; [7]): 0%
RI (recovery index) (rabbits): 0.55 min
Onset (rabbits): 0.6 min
ED50 ([2]; Felis catus, iv): 0.16 mg/kg
VB (vagal block) [2, 10]: 20%
ΔBP (change in arterial blood pressure) [2, 10]: 0%
ΔH (change in heart rate) [2, 10]: 0%
RI (recovery index) ([2]; cat): 0.5 min
Onset ([2]; cat): 0.9 min
ED50 ([3]; Sus scrofa, read-out: ED50): 0.268 mg/kg
VB (vagal block) [3, 7]: 46%
ΔBP (change in arterial blood pressure) [3, 7]: 0%
ΔH (change in heart rate) [3, 7]: 0%
RI (recovery index) [3]: 0.87 min
Onset [3]: 0.5 min

CC(=O)Oc1ccc(C[N+]2(C)[C@@H]3CC[C@H]2C[C@@H](OC(=O)C2CCC2C(=O)O[C@H]2C[C@H]4CC[C@@H](C2)[N+]4(C)Cc2ccc(OC(C)=O)c(OC(C)=O)c2)C3)cc1OC(C)=O.[Br-].[Br-] (stereo partly drawn) [bis[N-(3,4-diacetoxybenzyl)tropanium-3α-yl]cyclobutane-1,2-dicarboxylate dibromide]
ED50 ([1]; Rattus norvegicus, iv): 0.218 mg/kg
VB (vagal block) [1, 6]: 5%
ΔBP (change in arterial blood pressure) [1, 6]: 0%
ΔH (change in heart rate) [1, 6]: 0%
RI (recovery index) ([1]; rat): 0.45 min
Onset ([1]; rat): 0.7 min
ED50 (anesthetized monkeys; Primates, read-out: ED50): 0.054 mg/kg
ΔBP (change in arterial blood pressure) (anesthetized monkeys; [7]): 0%
ΔH (change in heart rate) (anesthetized monkeys; [7]): 0%
RI (recovery index) (anesthetized monkeys): 0.4 min
Onset (anesthetized monkeys): 0.95 min
ED50 (dogs; [8]): 0.1 mg/kg
ΔBP (change in arterial blood pressure) (dogs; [7]): −7%
ΔH (change in heart rate) (dogs; [7]): 10%
RI (recovery index) (dogs): 0.65 min
Onset (dogs): 0.9 min
ED50 (rabbits; [9]): 0.078 mg/kg
ΔBP (change in arterial blood pressure) (rabbits; [7]): 0%
ΔH (change in heart rate) (rabbits; [7]): 0%
RI (recovery index) (rabbits): 0.6 min
Onset (rabbits): 0.8 min
ED50 ([2]; Felis catus, iv): 0.135 mg/kg
VB (vagal block) [2, 10]: 12%
ΔBP (change in arterial blood pressure) [2, 10]: 0%
ΔH (change in heart rate) [2, 10]: 0%
RI (recovery index) ([2]; cat): 0.5 min
Onset ([2]; cat): 0.95 min
ED50 ([3]; Sus scrofa, read-out: ED50): 0.275 mg/kg
VB (vagal block) [3, 7]: 42%
ΔBP (change in arterial blood pressure) [3, 7]: 0%
ΔH (change in heart rate) [3, 7]: 0%
RI (recovery index) [3]: 0.85 min
Onset [3]: 0.68 min
